# Measured values published in patent US8519149B2, “Tricyclic compounds as mPGES-1 inhibitors” (Glenmark Pharmaceuticals S.A., priority 2010, dated 2013).
# Biological target: T1, Recombinant human mPGES-1 (Homo sapiens, UniProt O14684)
# T1 sequence (O14684 1-152): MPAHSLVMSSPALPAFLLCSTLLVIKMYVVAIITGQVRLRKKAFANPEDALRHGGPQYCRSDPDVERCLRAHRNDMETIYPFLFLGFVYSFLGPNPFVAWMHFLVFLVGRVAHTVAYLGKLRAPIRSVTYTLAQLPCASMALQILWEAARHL
# Assay: In-vitro mPGES-1 enzyme inhibition assay (PGE2 formation from PGH2, HTRF detection)
# Assay type: biochemical
# Details: for inhibition at 1 µM: 1 μM test compound, read-out: Percentage inhibition at 1 μM; for inhibition at 1 µM / inhibition at 10 µM: recombinant human mPGES-1 microsomal fraction; for inhibition at 10 µM: 10 μM test compound, read-out: Percentage inhibition at 10 μM; for IC50: class symbols, selected examples
# Description: In-Vitro Protocol for Screening of mPGES-1 Inhibitors: mPGES-1 (microsomal prostaglandin E synthase-1) is a microsomal enzyme that converts endoperoxide substrate PGH2 (prostaglandin H2) to product PGE2 (prostaglandin E2) by isomerization in the presence of reduced glutathione (GSH). mPGES-1 inhibitors were screened by assessing their ability to inhibit formation of PGE2 from PGH2 in presence of mPGES-1 using anti-PGE2 antibody based detection method. […] Assay was set up using crude microsomal fractions at protein concentration of 40-60 μg/mL. […] Final concentration of DMSO in reaction was 0.5% (v/v). Negative controls comprised of all assay reagents except the enzyme. Positive controls comprised of enzyme reaction in the absence of any inhibitor. […] Reaction was stopped by addition of Stannous chloride (11 mg/ml) and PGE2 levels were measured ([…] et al. […] Inhibition of mPGES-1 enzyme activity was measured using percent of reaction occurring in the positive control. Concentration response curves were plotted using percent inhibition of maximum enzyme reaction. IC50 value was calculated from concentration response curve by nonlinear regression analysis using GraphPad PRISM software.
Structure (SMILES),inhibition at 1 µM [%],inhibition at 10 µM [%],IC50 [µM]
"CC1(C)Cc2c(c(C(=O)NC3(c4ccccc4C(F)(F)F)CC3)cc3nc(Nc4c(F)cccc4Cl)[nH]c23)O1 [Example-118, 2-[(2-Chloro-6-fluorophenyl)amino]-7,7-dimethyl-N-{1-[2-(trifluoromethyl)phenyl]cyclopropyl}-7,8-dihydro-1H-furo[3,2-e]benzimidazole-5-carboxamide]",97,98.7,> 0.1
"Cc1cc2c(o1)c(C(=O)Nc1ccc(Br)cn1)cc1nc(Nc3c(Cl)cccc3Cl)[nH]c12 [Example-71, N-(5-Bromopyridin-2-yl)-2-[(2,6-dichlorophenyl)amino]-7-methyl-1H-furo[3,2-e]benzimidazole-5-carboxamide]",93.9,98.4,< 0.05
"Cc1cc2c(o1)c(C(=O)NCc1ccc(F)cc1)cc1nc(Nc3c(F)cccc3Cl)[nH]c12 [Example-48, 2-[(2-Chloro-6-fluorophenyl)amino]-N-(4-fluorobenzyl)-7-methyl-1H-furo[3,2-e]benzimidazole-5-carboxamide]",70.8,96.7,–
"CC1(C)Cc2c(c(C(=O)Nc3cc(F)c(F)cc3F)cc3nc(Nc4c(Cl)cncc4Cl)[nH]c23)O1 [Example-199, 2-((3,5-Dichloropyridin-4-yl)amino)-7,7-dimethyl-N-(2,4,5-trifluorophenyl)-7,8-dihydro-1H-benzofuro[4,5-d]imidazole-5-carboxamide]",99.4,100,< 0.05
"CC1(C)Cc2c(c(C(=O)Nc3ncc(Cl)cc3F)cc3nc(Nc4c(Cl)cccc4Cl)[nH]c23)O1 [Example-205, N-(5-Chloro-3-fluoropyridin-2-yl)-2-((2,6-dichlorophenyl)amino)-7,7-dimethyl-7,8-dihydro-1H-benzofuro[4,5-d]imidazole-5-carboxamide]",99.9,100,< 0.05
"Cc1cccc(Cl)c1Nc1nc2cc(C(=O)Nc3c(F)cc(F)cc3F)c3c(c2[nH]1)CC(C)(C)O3 [Example-109, 2-[(2-Chloro-6-methylphenyl)amino]-7,7-dimethyl-N-(2,4,6-trifluorophenyl)-7,8-dihydro-1H-furo[3,2-e]benzimidazole-5-carboxamide]",93.8,98.8,0.05 to 0.1
"CN(C)CCNC(=O)c1cc2nc(Nc3c(Cl)cccc3Cl)[nH]c2c2c1OC(C)(C)C2 [Example-61, 2-[(2,6-Dichlorophenyl)amino]-N-[2-(dimethylamino)ethyl]-7,7-dimethyl-7,8-dihydro-1H-furo[3,2-e]benzimidazole-5-carboxamide]",6.5,69.8,–
C[C@@H](NC(=O)c1cc2nc(Nc3c(Cl)cncc3Cl)[nH]c2c2c1OC(C)(C)C2)C(C)(C)C [Example-6],93.4,95.5,< 0.05
"Cc1cc2c(o1)c(C(=O)NC1CCCCC1)cc1nc(Nc3c(Cl)cccc3Cl)[nH]c12 [Example-13, N-Cyclohexyl-2-[(2,6-dichlorophenyl)amino]-7-methyl-1H-furo[3,2-e]benzimidazole-5-carboxamide]",94.2,97.5,–
"O=C(Nc1cc(C(F)(F)F)ccc1F)c1cc2nc(Nc3c(F)cccc3Cl)[nH]c2c2nc(C3CC3)oc12 [Example-185, 7-((2-Chloro-6-fluorophenyl)amino)-2-cyclopropyl-N-(2-fluoro-5-(trifluoromethyl)phenyl)-8H-imidazo[4′,5′:5,6]benzo[1,2-d]oxazole-4-carboxamide]",94.4,98.5,< 0.05
"CC1(C)Cc2c(c(C(=O)Nc3ccc(N4CCCC4)nc3)cc3nc(Nc4c(Cl)cccc4Cl)[nH]c23)O1 [Example-96, 2-[(2,6-Dichlorophenyl)amino]-7,7-dimethyl-N-[6-(pyrrolidin-1-yl)pyridin-3-yl]-7,8-dihydro-1H-furo[3,2-e]benzimidazole-5-carboxamide]",90.4,95.1,< 0.05
"CC1(C)Cc2c(c(C(=O)Nc3ccc(F)cc3C(F)(F)F)cc3nc(Nc4c(F)cccc4Cl)[nH]c23)O1 [Example-117, 2-[(2-Chloro-6-fluorophenyl)amino]-N-[4-fluoro-2-(trifluoromethyl)phenyl]-7,7-dimethyl-7,8-dihydro-1H-furo[3,2-e]benzimidazole-5-carboxamide]",100,98.7,< 0.05
"CC1(C)Cc2c(c(C(=O)Nc3cc(C(F)F)ccc3F)cc3nc(Nc4c(F)cccc4Cl)[nH]c23)O1 [Example-131, 2-((2-Chloro-6-fluorophenyl)amino)-N-(5-(difluoromethyl)-2-fluorophenyl)-7,7-dimethyl-7,8-dihydro-1H-benzofuro[4,5-d]imidazole-5-carboxamide]",96.9,98.1,< 0.05
"CC1(C)Cc2c(c(C(=O)Nc3ccc(C(F)(F)F)nc3)cc3nc(Nc4c(F)cccc4Cl)[nH]c23)O1 [Example-191, 2-((2-Chloro-6-fluorophenyl)amino)-7,7-dimethyl-N-(6-(trifluoromethyl)pyridin-3-yl)-7,8-dihydro-1H-benzofuro[4,5-d]imidazole-5-carboxamide]",96.1,96.3,< 0.05
"CC1(C)Cc2c(c(C(=O)Nc3ccccc3Br)cc3nc(Nc4c(Cl)cccc4Cl)[nH]c23)O1 [Example-72, N-(2-Bromophenyl)-2-[(2,6-dichlorophenyl)amino]-7,7-dimethyl-7,8-dihydro-1H-furo[3,2-e]benzimidazole-5-carboxamide]",93.2,93.7,< 0.05

# Now from value to compound:
inhibition at 1 µM [%],inhibition at 10 µM [%],IC50 [µM],Structure (SMILES)
93.8,92.5,< 0.05,"CC1(C)Cc2c(c(C(=O)Nc3ccccc3F)cc3nc(Nc4c(Cl)cccc4Cl)[nH]c23)O1 [Example-30, 2-[(2,6-Dichlorophenyl)amino]-N-(2-fluorophenyl)-7,7-dimethyl-7,8-dihydro-1H-furo[3,2-e]benzimidazole-5-carboxamide]"
95.8,99.6,< 0.05,"CC1(C)Cc2c(c(C(=O)Nc3c(F)cccc3F)cc3nc(Nc4c(Cl)cccc4Cl)[nH]c23)O1 [Example-76, 2-[(2,6-Dichlorophenyl)amino]-N-(2,6-difluorophenyl)-7,7-dimethyl-7,8-dihydro-1H-furo[3,2-e]benzimidazole-5-carboxamide]"
100,100,< 0.05,"CC1(C)CCCC(NC(=O)c2cc3nc(Nc4c(Cl)cncc4Cl)[nH]c3c3c2OC(C)(C)C3)C1 (stereo not drawn) [Example-14, 2-[(3,5-Dichloropyridin-4-yl)amino]-N-(3,3-dimethylcyclohexyl)-7,7-dimethyl-7,8-dihydro-1H-furo[3,2-e]benzimidazole-5-carboxamide]"
97.6,98,< 0.05,"CC1(C)Cc2c(c(C(=O)Nc3ccc(C(F)(F)F)cn3)cc3nc(Nc4c(Cl)cccc4Cl)[nH]c23)O1 [Example-101, 2-[(2,6-Dichlorophenyl)amino]-7,7-dimethyl-N-[5-(trifluoromethyl)pyridin-2-yl]-7,8-dihydro-1H-furo[3,2-e]benzimidazole-5-carboxamide]"
100,100,< 0.05,"CC(C)CCNC(=O)c1cc2nc(Nc3c(Cl)cccc3Cl)[nH]c2c2c1OC(C)(C)C2 [Example-46, 2-[(2,6-Dichlorophenyl)amino]-7,7-dimethyl-N-(3-methylbutyl)-7,8-dihydro-1H-furo[3,2-e]benzimidazole-5-carboxamide]"
98.8,99,< 0.05,"CC1(C)Cc2c(c(C(=O)Nc3cc(C(F)(F)F)ccc3F)cc3nc(Nc4c(Cl)cncc4Cl)[nH]c23)O1 [Example-195, 2-((3,5-Dichloropyridin-4-yl)amino)-N-(2-fluoro-5-(trifluoromethyl)phenyl)-7,7-dimethyl-7,8-dihydro-1H-benzofuro[4,5-d]imidazole-5-carboxamide]"
96.9,99.8,< 0.05,"CC1(C)Cc2c(c(C(=O)NC3(c4ccc(C(F)(F)F)cc4)CC3)cc3nc(Nc4c(F)cccc4Cl)[nH]c23)O1 [Example-116, 2-[(2-Chloro-6-fluorophenyl)amino]-7,7-dimethyl-N-{1-[4-(trifluoromethyl)phenyl]cyclopropyl}-7,8-dihydro-1H-furo[3,2-e]benzimidazole-5-carboxamide]"
86.2,98,< 0.05,"COCCCNC(=O)c1cc2nc(Nc3c(Cl)cccc3Cl)[nH]c2c2c1OC(C)(C)C2 [Example-69, 2-[(2,6-Dichlorophenyl)amino]-N-(3-methoxypropyl)-7,7-dimethyl-7,8-dihydro-1H-furo[3,2-e]benzimidazole-5-carboxamide]"
